BigSolDB 2.1

C[C@H]1O[C@@H](n2cc(F)c(=O)[nH]c2=O)[C@H](O)[C@@H]1O
solubility (mole fraction)
Settings | in 2-ethylhexanol | in methanol
278.15 K | 1.43e-05 | 0.00296
283.15 K | 2.23e-05 | 0.00334
288.15 K | 3.13e-05 | 0.00414
293.15 K | 4.66e-05 | 0.00466
298.15 K | 6.85e-05 | 0.00561
303.15 K | 9.63e-05 | 0.00653
308.15 K | 0.000139 | 0.00757
313.15 K | 0.000182 | 0.00849
318.15 K | 0.000252 | 0.0101
323.15 K | 0.000373 | 0.0113
328.15 K | 0.000496 | 0.0133
